Results published in patent US11124486B2, “6-membered heterocyclic derivatives and pharmaceutical composition comprising the same” (Shionogi & Co., Ltd., priority 2015, dated 2021).

Target: human P2X7 receptor (Homo sapiens, UniProt Q99572, R270H/Y155H)
Assay: Evaluation of a human P2X7 receptor inhibitory activity (Yo-Pro uptake, BzATP stimulation, FLIPR TETRA)
Type: cell-based
Conditions: 1321N1 cells expressing human P2X7 receptor; BzATP stimulation, Yo-Pro uptake; read-out: IC50 (antagonistic activity for the human P2X7 receptor)
Experimental: Test Example 1 Evaluation of a Human P2X7 Receptor Inhibitory Activity
Stably expressing cell line (1321N1 cell transfected with the human P2X7 receptor gene (GenBank accession number NM_002502.5 including T606C and G952A SNP)) was used. The cells were seeded in a 384-well microtiter plate at a concentration of 8000 cells/well and cultured in the medium (10% fetal bovine serum, 25 mM HEPES, 1% penicillin and streptomycin in DMEM) for one day at 37° C. under 5% carbon dioxide atmosphere. After replacing with 20 μL of the HBSS buffer (20 mM HEPES, 55.6 mM D-glucose, 1×HBSS(−), pH7.4-7.5). 16 μL of 17.3 μM Yo-Pro solution in the HBSS buffer was added. The plate was placed in high-throughput cellular screening system FLIPR TETRA (Molecullar Devices, LLC.) and 15 μL of 130 μM BzATP solution in the HBSS buffer was added. Measurement, of fluorescence intensity by FLIPR TETRA was started. After eight minutes, 15 μL of DMSO solutions containing different concentrations of the compound of the present invention as prepared by dilution with the HBSS buffer were dispensed to each well through the built-in automatic dispenser, and the measurement of fluorescence intensity was continued for 20 minutes. […] Changing values of fluorescence intensity by the compound of the present invention were calculated by difference between maximum and minimum fluorescence intensity for 20 minutes. Inhibition ratios (%) were calculated from the following equation:
[formula] IC50 was calculated using Logistic approximation.

Going from COc1cn(Cc2ccc(F)c(Cl)c2)c(Nc2cc3sc(C)nc3cc2C)cc1=O [Compound I-0033] to COc1cn(Cc2ccc(F)c(Cl)c2)c(Oc2cc(C)c(C)cc2C)nc1=O [Compound I-0358], the IC50 rises from 49 nM to 160 nM (3.3-fold). The first is the more potent here.

COc1cn(Cc2cc(F)cc(F)c2)c(NCc2cccc(Cl)c2C)nc1=O [Compound I-0452] was tested, and the IC50 was 110 nM.

Same assay, conditions: 1321N1 cells expressing human P2X7 receptor; BzATP stimulation, Yo-Pro uptake; read-out: IC50 (antagonistic activity for the human P2X7 receptor), class

COc1cn(Cc2ccc(F)c(F)c2)c(Nc2ccc(C)cc2C)nc1=O [Compound I-0461] and COc1cn(Cc2cc(F)cc(F)c2)c(Nc2ccc(C)cc2C)nc1=O [Compound I-0463] cannot be ordered by IC50: less than 10 nM for the first, less than 10 nM for the second.

CCOc1ccc(C)c(Nc2nc(=O)c(OC)cn2Cc2ccc(F)c(Cl)c2)c1 [Compound I-0459] and CCOc1ccc(C)c(Nc2nc(=O)c(OC)cn2Cc2ccc(F)c(F)c2)c1 [Compound I-0457] cannot be ordered by IC50: less than 10 nM for the first, less than 10 nM for the second.

CCOc1ccc(C)c(Nc2nc(=O)c(OC)cn2Cc2cc(F)cc(Cl)c2)c1 [Compound I-0460] and CCOc1ccc(C)c(Nc2nc(=O)c(OC)cn2Cc2cc(F)cc(F)c2)c1 [Compound I-0458] fall in the same range of IC50: 10 to 100 nM for the first, 10 to 100 nM for the second.

COc1cc(Nc2nc(=O)c(OC)cn2Cc2ccc(F)cc2)c(C)cc1Cl [Compound I-0475] and COc1cc(Nc2nc(=O)c(OC)cn2Cc2cccc(F)c2)c(C)cc1Cl [Compound I-0474] cannot be ordered by IC50: less than 10 nM for the first, less than 10 nM for the second.

COc1cc(C)c(Nc2nc(=O)c(OC)cn2Cc2ccccc2)cc1Cl [Compound I-0464] and COc1cc(C)c(Nc2nc(=O)c(OC)cn2Cc2ccc(F)c(Cl)c2)cc1Cl [Compound I-0465] cannot be ordered by IC50: less than 10 nM for the first, less than 10 nM for the second.

Compared with COc1cn(Cc2cccc(Cl)c2)c(Nc2cccc(C(F)(F)F)c2C)nc1=O [Compound I-0466], COc1cccc(Nc2nc(=O)c(OC)cn2Cc2cccc(Cl)c2)c1C [Compound I-0476] is lower in IC50: 10 to 100 nM for the first, less than 10 nM for the second.

COc1cccc(Nc2nc(=O)c(OC)cn2Cc2ccc(F)c(F)c2)c1C [Compound I-0477] and COc1cccc(Nc2nc(=O)c(OC)cn2Cc2ccc(F)c(Cl)c2)c1C [Compound I-0478] cannot be ordered by IC50: less than 10 nM for the first, less than 10 nM for the second.

COc1cc(C)c(Nc2nc(=O)c(OC)cn2Cc2cc(F)cc(Cl)c2)cc1C [Compound I-0446] and COc1cc(C)c(Nc2nc(=O)c(OC)cn2Cc2cccc(F)c2)cc1C [Compound I-0249] cannot be ordered by IC50: less than 10 nM for the first, less than 10 nM for the second.

CCc1ccc(F)cc1Nc1nc(=O)c(OC)cn1Cc1ccccc1 [Compound I-0450] and COc1cn(Cc2ccccc2)c(Nc2cccc(C)c2Cl)nc1=O [Compound I-0112] fall in the same range of IC50: 10 to 100 nM for the first, 10 to 100 nM for the second.

First: COc1cn(Cc2cc(F)cc(Cl)c2)c(Nc2ccc(C)cc2C)nc1=O [Compound I-0462]
Second: CCc1cc(OC)ccc1Nc1nc(=O)c(OC)cn1Cc1cc(F)cc(Cl)c1 [Compound I-0447]
The IC50 of the first is higher: 10 to 100 nM for the first, less than 10 nM for the second. The second is the more potent here.

First: COc1cn(Cc2cccc(OC(F)F)c2)c(Nc2cccc(Cl)c2C)nc1=O [Compound I-0422]
Second: Cc1c(Cl)cccc1Nc1nc(=O)c(OOC(C)(C)C)cn1Cc1ccccc1 [Compound I-0111]
The IC50 of the first is higher: 500 to 1000 nM for the first, 100 to 500 nM for the second. The second is the more potent here.

First: COc1cn(Cc2ccccc2)c(Nc2cc(S(C)(=O)=O)c(C)cc2C)nc1=O [Compound I-0448]
Second: COc1cn(Cc2ccc(F)c(Cl)c2)c(Nc2cc(S(C)(=O)=O)c(C)cc2C)nc1=O [Compound I-0449]
The IC50 of the first is higher: 10 to 100 nM for the first, less than 10 nM for the second.

Compared with COc1cn(Cc2ccccc2)c(Oc2cc(C)c(C)cc2C)nc1=O [Compound I-0357], COc1cn(Cc2cc(F)cc(Cl)c2)c(Nc2cc(OCC(F)(F)F)ccc2C)nc1=O [Compound I-0498] is lower in IC50: 500 to 1000 nM for the first, 100 to 500 nM for the second.

Same assay, conditions: antagonistic activity for the human P2X7 receptor; 1321N1 cells expressing human P2X7, BzATP-stimulated Yo-Pro uptake; read-out: IC50

COc1ccc(NC2=NC(=O)CC(C)N2Cc2cc(F)c(F)c(F)c2)c(C)c1 (stereo not drawn) [Compound I-1167] and COc1cc(C)c(Nc2nc(=O)cc(C)n2Cc2cc(F)c(F)c(F)c2)cc1OC [Compound I-1153] cannot be ordered by IC50: less than 10 nM for the first, less than 10 nM for the second.

First: Cc1cc(F)c(-c2cccn(C)c2=O)cc1Nc1nc(=O)c(F)cn1Cc1cc(F)c(F)c(F)c1 [Compound I-1222]
Second: COc1cn(Cc2cc(F)c(F)c(F)c2)c(Cc2cccc3[nH]c(=O)ccc23)nc1=O [Compound I-0602]
The IC50 of the first is lower: less than 10 nM for the first, 100 to 500 nM for the second. The first is the more potent here.

First: COc1cn(Cc2ccccc2)c(Nc2ccc(C)cc2F)nc1=O [Compound I-0762]
Second: COc1cn(Cc2ccc(F)c(Cl)c2)c(Nc2c(C)cc3c(c2C)COC3)nc1=O [Compound I-0907]
The IC50 of the first is higher: 100 to 500 nM for the first, less than 10 nM for the second. The second is the more potent here.

For COC1CN(Cc2ccc(F)c(F)c2)C(Nc2cc(S(C)(=O)=O)c(C)cc2C)=NC1=O (stereo not drawn) [Compound I-0605], the IC50 was 10 to 100 nM.
